According to patent publication US9540378B2, “Composition comprising purine derivatives or salt thereof for preventing or treating atopic dermatitis” (DAEWOONG CO., LTD., priority 2012, dated 2017):
Marks after values point to notes of the source that are not given here.

Key:
IL-6 = experiment: Inhibition of inflammatory cytokine mRNA expression (RT-PCR) in LPS-treated Raw264.7 cells: IL-6; type: cell-based, mouse; settings: 400 uM, LPS 1 ug/ml, 24 hours
Protocol: (§1) The inhibitory activity of the compound of Formula 1 was evaluated against the expressions of inflammatory cytokines of atopic dermatitis, i.e., IL-6, IL-10, IL-12p40, and COX-2. Briefly, the Raw264.7 mouse macrophage cell line (ATCC TIB-71) (about 1×10^6 cells) was added into the each well of a 12-well plate and then incubated in a RPMI medium supplemented with 100 U/ml penicillin, 100 ug/ml streptomycin and 10% fetal bovine serum. The cells were treated with the compound of Formula 1 (400 uM) and LPS (1 ug/ml), and then incubated under the condition of 37° C., 5% CO2 for 24 hours. The cells isolated from each group of the medium were treated with a Trizol reagent to extract the total RNA. Each cDNA was prepared according to the vendor's instruction, using a First strand cDNA synthesis kit (Fermentas). The resulting cDNAs (in the same amount for each cDNA) were subject to PCR amplification. The sense and antisense primers used were prepared according to the disclosures, i.e., Zhi-Qiang Chang et al., J. Nutr. Sci. Vitaminol., 2011, 27, p 118-122, JiYeon Lee et al., Biol. Pharm. Bull., 2007, 30(11), p 2043-2051, E. V. Maryukhnich et al., Biol. Sci., 2007, 414, p 242-245. […]

IL-12p40 = experiment: Inhibition of inflammatory cytokine mRNA expression (RT-PCR) in LPS-treated Raw264.7 cells: IL-12p40; type: cell-based, mouse; settings: 400 uM, LPS 1 ug/ml, 24 hours
Protocol: as §1

COX-2 = experiment: Inhibition of inflammatory cytokine mRNA expression (RT-PCR) in LPS-treated Raw264.7 cells: COX-2; type: cell-based, mouse; settings: 400 uM, LPS 1 ug/ml, 24 hours
Protocol: as §1

IL-10 = experiment: Inhibition of inflammatory cytokine mRNA expression (RT-PCR) in LPS-treated Raw264.7 cells: IL-10; type: cell-based, mouse; settings: 400 uM, LPS 1 ug/ml, 24 hours
Protocol: as §1

[1] = tested on: NC/Nga mice, animal models of atopic dermatitis; experiment: In vivo inhibitory activity against atopic dermatitis in 2,4-DNFB-induced NC/Nga mice; settings: for Reducing ratio (%) Dermatitis score: applied on affected sites twice per day for 10 days; for Reducing ratio (%) Dermatitis score / Reducing ratio (%) Difference of left and right ear thicknesses / Reducing ratio (%) Epidermis thickness / Reducing ratio (%) Number of mast cells / Reducing ratio (%) Serum IgE level: vs atopic control group; for Reducing ratio (%) Difference of left and right ear thicknesses / Reducing ratio (%) Epidermis thickness / Reducing ratio (%) Number of mast cells / Reducing ratio (%) Serum IgE level: topical, 10 days
Protocol: NC/Nga mice (male, 6 weeks old), animal models of atopic dermatitis, were subject to complete hair removal of the back skin, and then left for 24 hours for healing the minute wounds on the skin. Atopic dermatitis was induced to the mice as follows. That is, a 0.2% solution of 2,4-DNFB (2,4-dinitrofluorobenzene) was prepared by dissolving in a mixed solvent of acetone and olive oil (3:1, v/v). The solution (150 μl) was applied on the hair-removed site of each mouse twice per week for 4 weeks, to induce atopic dermatitis.
The normal control group (NC) was subject to only complete hair removal of the back skin. In case of the atopic dermatitis-induced atopic control group (AC), only Vaseline was applied on the hair-removed sites. […] Each group includes 8 mice.
The therapeutic activity against atopic dermatitis was evaluated through measuring dermatitis scores, epidermis thicknesses, left and right ear thicknesses, serum IgE levels, and numbers of mast cells.
The dermatitis scores were determined by observing the affected sites at the time when the treatments were completed, and then evaluating the visual changes such as erythema, bleeding, scab, etc., so as to yield the scores ranging from 1 to 10. From the resulting dermatitis scores, the inhibition ratio of each test group was calculated in comparison with the atopic control group.
Skin tissue was taken in a size of 1 cm×1 cm from the central area of each affected site, fixed with 10% formaldehyde solution, embedded in paraffin film, and then cut into a 4 μm section. Each tissue section was subject to hematoxylin-eosin (H&E) staining, and then observed with an optical microscope (×200, 5 sites per tissue) so as to calculate the epidermis thickness thereof.
The left and right ear thicknesses were measured with a digital vernier caliper, at the time when the test was started and at the time when the test was completed.
The serum IgE level was measured in the blood collected from the heart of each group mice, according to ELISA (Enzyme-linked immunosorbent assay) methods.
Skin tissue was taken in a size of 0.5 cm×1 cm from the central area of each affected site, fixed with IHC zinc fixative formalin-free solution, embedded in paraffin film, and then cut into a 4 μm section. Each tissue section was adhered on a slide coated with poly-L-lysine, followed by removing the paraffin and hydrating. Each resulting section was subject to toluidine blue staining, and then observed with an optical microscope (×200, 3 sites per tissue) so as to measure the number of mast cells.
All measurement values were calculated in mean±standard deviation. Statistical significances were determined with ANOVA. ≦5% is considered as being statistically significant.

[2] = 0.03% and 0.1%, applied on affected sites for 10 days

`Cn1c(N)nc2c(ncn2C)c1=O` [compound of Formula 1, 2-amino-1,9-dimethylpurin-6-one] was tested, and the “IL-6 mRNA expression level” value (IL-6) was “effectively inhibited”, the “IL-12p40 mRNA expression level” value (IL-12p40) was “effectively inhibited” and the “COX-2 mRNA expression level” value (COX-2) was “effectively inhibited”. The “IL-10 mRNA expression level” value (IL-10) was “effectively inhibited”, the “dermatitis scores, in words” value [1, 2] was “significantly reduced” and the “differences of left and right ear thicknesses, in words” value [1, 2] was “significantly reduced”. The “epidermis thicknesses, in words” value [1, 2] was “significantly reduced”, the “numbers of mast cells, in words” value [1, 2] was “significantly reduced” and the “serum IgE levels, in words” value [1, 2] was “significantly reduced”. For the same compound, the “Reducing ratio (%) Dermatitis score” value ([1]; Test group 1 (0.03%)) was 8.96* %, the “Reducing ratio (%) Difference of left and right ear thicknesses” value ([1]; Test group 1 (0.03%)) was 7.69% and the “Reducing ratio (%) Epidermis thickness” value ([1]; Test group 1 (0.03%)) was 36.13*** %. For the same compound, the “Reducing ratio (%) Number of mast cells” value ([1]; Test group 1 (0.03%)) was 7.7%, the “Reducing ratio (%) Serum IgE level” value ([1]; Test group 1 (0.03%)) was 51.76% and the “Reducing ratio (%) Dermatitis score” value ([1]; Test group 2 (0.1%)) was 24.00*** %. For the same compound, the “Reducing ratio (%) Difference of left and right ear thicknesses” value ([1]; Test group 2 (0.1%)) was 38.46%, the “Reducing ratio (%) Epidermis thickness” value ([1]; Test group 2 (0.1%)) was 52.63*** % and the “Reducing ratio (%) Number of mast cells” value ([1]; Test group 2 (0.1%)) was 24.9** %. For the same compound, the “Reducing ratio (%) Serum IgE level” value ([1]; Test group 2 (0.1%)) was 56.46** %.
